Activity calls are given as the source filed them. No cut-off for these calls is given here. Where a SMILES comes first, the peptide text is derived from it. [ ]: non-standard residue; d: D form. Nle = CCCC[C@H](N)C(=O)O
Experiments:
[1] = target: Amyloid-beta precursor protein (Homo sapiens) (UniProt P05067); test: Inhibition of amyloid beta 40 (unknown origin) aggregation assessed as reduction in fibril formation by measuring fluorescence intensity at 100 to 500 uM measured for 72 hrs by ThT flourescence assay; details: dose 100-500 µM
[2] = target: Amyloid-beta precursor protein (Homo sapiens) (UniProt P05067); test: Inhibition of amyloid beta 40 (unknown origin) aggregation assessed as reduction in fibril formation by measuring fluorescence intensity at compound:Abeta40 concentration ratio of 1:5 and measured for 72 hrs by ThT flourescence assay relative to control
[3] = target: Amyloid-beta precursor protein (Homo sapiens) (UniProt P05067); test: Inhibition of amyloid beta 40 (unknown origin) aggregation assessed as reduction in fibril formation by measuring fluorescence intensity at compound:Abeta40 concentration ratio of 1:1 and measured for 72 hrs by ThT flourescence assay relative to control
[4] = target: Amyloid-beta precursor protein (Homo sapiens) (UniProt P05067); test: Induction of amyloid beta 40 fibrils (unknown origin) disaggregation assessed as decrease in relative fluorescence intensity at 500 uM incubated for 24 hrs ThT flourescence assay relative to control; parameters: scale not given: the % may be the effect or the level left
[5] = target: Amyloid-beta precursor protein (Homo sapiens) (UniProt P05067); test: Inhibition of amyloid beta 42 (unknown origin) aggregation assessed as decrease in fibril formation by measuring fluorescence intensity and measured for 72 hrs by ThT flourescence assay
PC-12 [6] = test: Neuroprotective activity against amyloid beta 40-induced cytotoxicity in rat PC12 cells assessed as increase in cell viability at compound:Abeta40 concentration ratio of 1:5 and incubated for 24 hrs by MTT assay relative to control; type: functional
PC-12 [7] = test: Neuroprotective activity against amyloid beta 40-induced cytotoxicity in rat PC12 cells assessed as increase in cell viability at compound:Abeta40 concentration ratio of 1:1 and incubated for 24 hrs by MTT assay relative to control; type: functional, cell-based
PC-12 [8] = test: Cytotoxicity against rat PC12 cells assessed as reduction in cell viability at 100 uM incubated for 24 hrs by MTT assay; type: toxicity, cell-based; details: pc-12, 24 h
[9] = target: Amyloid-beta precursor protein (Homo sapiens) (UniProt P05067); test: Inhibition of amyloid beta 40 (unknown origin) self aggregation assessed as change in fibril morphology at 500 uM incubated for 72 hrs by TEM analysis
[10] = target: Amyloid-beta precursor protein (Homo sapiens) (UniProt P05067); test: Inhibition of amyloid beta 40 (unknown origin) aggregation assessed as assessed as decrease in oligomer formation by measuring decrease in oligomer-specific A11 antibody spots at 150 uM and measured for 48 hrs by Dot-Blot assay
[11] = target: Amyloid-beta precursor protein (Homo sapiens) (UniProt P05067); test: Inhibition of amyloid beta 40 (unknown origin) aggregation assessed as decrease in […] conformation of protein secondary structure at 50 uM incubated for 24 hrs by Circular dichroism spectroscopy analysis
[12] = target: Amyloid-beta precursor protein (Homo sapiens) (UniProt P05067); test: Inhibition of amyloid beta 40 (unknown origin) aggregation assessed as assessed as decrease in fibril formation by measuring decrease in fibril-specific OC antibody spots at 150 uM and measured for 48 hrs by Dot-Blot assay
Caenorhabditis elegans [13] = test: Neuroprotective activity against transgenic Caenorhabditis elegans GMC101 Alzheimer's disease model expressing human amyloid beta 42 assessed as increase in fractional of unparalyzed worms at 5 uM (Rvb=51%); type: functional
Caenorhabditis elegans [14] = test: (§1) Neuroprotective activity against transgenic Caenorhabditis elegans CL2355 Alzheimer's disease model expressing human amyloid beta (1 to 42 residues) in neuron assessed as increase in motility by measuring bending frequency at 5 uM incubated for 36 hrs at 16 degreeC and 36 hrs at 23 degreeC (reference value: 72); type: functional; details: time 72 hrs
Caenorhabditis elegans [15] = test: (§2) Neuroprotective activity against transgenic Caenorhabditis elegans CL2355 Alzheimer's disease model expressing human amyloid beta (1 to 42 residues) in neuron assessed as increase in chemotaxis index at 50 uM incubated for 36 hrs at 16 degreeC and 36 hrs at 23 degreeC by Chemotaxis Assay (0.22; type: functional; details: time 72 hrs
[16] = target: Amyloid-beta precursor protein (Homo sapiens) (UniProt P05067); test: Inhibition of amyloid beta 42 (unknown origin) aggregation assessed as reduction in fibril formation by measuring fluorescence intensity at compound:Abeta42 concentration ratio of 1:5 and measured for 72 hrs by ThT flourescence assay relative to control
[17] = target: Amyloid-beta precursor protein (Homo sapiens) (UniProt P05067); test: Inhibition of amyloid beta 40 (unknown origin) self aggregation assessed as decrease in fibril formation at 500 uM incubated for 72 hrs by TEM analysis
Caenorhabditis elegans [18] = test: Neuroprotective activity in transgenic Caenorhabditis elegans GMC101 Alzheimer's disease model overexpressing human amyloid beta (1 to 42 residues) in body-wall muscle assessed as reduction in fibril-specific […] antibody spots incubated for 48 hrs by immunochemical dot-blot analysis; type: functional, organism-based
Caenorhabditis elegans [19] = test: Neuroprotective activity in transgenic Caenorhabditis elegans GMC101 Alzheimer's disease model overexpressing human amyloid beta (1 to 42 residues) in body-wall muscle assessed as delay in amyloid beta 42-induced paralysis at 5 to 50 uM incubated for 48 hrs; type: functional, organism-based; details: dose 5-50 µM
Caenorhabditis elegans [20] = test: Neuroprotective activity in transgenic Caenorhabditis elegans GMC101 Alzheimer's disease model expressing human amyloid beta (1 to 42 residues) in body-wall muscle assessed as increase in fraction of unparalyzed worms at 5 uM incubated for 48 hrs (Rvb= 56%); type: functional
Caenorhabditis elegans [21] = test: Neuroprotective activity against wild type Caenorhabditis elegans CL2122 assessed as delay in amyloid beta 42-induced paralysis at 50 uM incubated for 48 hrs; type: functional, organism-based
Caenorhabditis elegans [22] = test: Neuroprotective activity against transgenic Caenorhabditis elegans CL2355 Alzheimer's disease model expressing human amyloid beta (1 to 42 residues) in neuron assessed as increase in motility at 5 to 50 uM incubated for 36 hrs at 16 degreeC and 36 hrs at 23 degreeC; type: functional, organism-based; details: dose 5-50 µM, time 72.0 hrs
Caenorhabditis elegans [23] = test: as §1, with “74)” for “72)”; type: functional; details: time 72 hrs
Caenorhabditis elegans [24] = test: as §2, with “assessed as neutralization of damaging effect of amyloid beta aggregation by measuring increase in” for “assessed as increase in”, “Chemotaxis Assay” for “Chemotaxis Assay (0.22”; type: functional, organism-based; details: time 72.0 hrs
Caenorhabditis elegans [25] = test: Neuroprotective activity in transgenic Caenorhabditis elegans GMC101 Alzheimer's disease model overexpressing human amyloid beta (1 to 42 residues) in body-wall muscle assessed as reduction in oligomeric-specific A11 antibody spots incubated for 48 hrs by immunochemical dot-blot analysis; type: functional, organism-based
Caenorhabditis elegans [26] = test: Neuroprotective activity in transgenic Caenorhabditis elegans GMC101 Alzheimer's disease model overexpressing human amyloid beta (1 to 42 residues) in body-wall muscle assessed as reduction in amyloid beta fibrils incubated for 48 hrs by Western blot analysis; type: functional, organism-based
Caenorhabditis elegans [27] = test: Neuroprotective activity in transgenic Caenorhabditis elegans GMC101 Alzheimer's disease model overexpressing human amyloid beta (1 to 42 residues) in body-wall muscle assessed as reduction in amyloid beta oligomers incubated for 48 hrs by Western blot analysis; type: functional, organism-based
Caenorhabditis elegans [28] = test: Neuroprotective activity against wild type Caenorhabditis elegans CL2122 assessed as motility changes by measuring worms bending frequency at 50 uM incubated for 36 hrs at 16 degreeC and 36 hrs at 23 degreeC; type: functional, organism-based; details: time 72.0 hrs

Chain of Amyloid-beta precursor protein (Homo sapiens) (P05067 whole entry): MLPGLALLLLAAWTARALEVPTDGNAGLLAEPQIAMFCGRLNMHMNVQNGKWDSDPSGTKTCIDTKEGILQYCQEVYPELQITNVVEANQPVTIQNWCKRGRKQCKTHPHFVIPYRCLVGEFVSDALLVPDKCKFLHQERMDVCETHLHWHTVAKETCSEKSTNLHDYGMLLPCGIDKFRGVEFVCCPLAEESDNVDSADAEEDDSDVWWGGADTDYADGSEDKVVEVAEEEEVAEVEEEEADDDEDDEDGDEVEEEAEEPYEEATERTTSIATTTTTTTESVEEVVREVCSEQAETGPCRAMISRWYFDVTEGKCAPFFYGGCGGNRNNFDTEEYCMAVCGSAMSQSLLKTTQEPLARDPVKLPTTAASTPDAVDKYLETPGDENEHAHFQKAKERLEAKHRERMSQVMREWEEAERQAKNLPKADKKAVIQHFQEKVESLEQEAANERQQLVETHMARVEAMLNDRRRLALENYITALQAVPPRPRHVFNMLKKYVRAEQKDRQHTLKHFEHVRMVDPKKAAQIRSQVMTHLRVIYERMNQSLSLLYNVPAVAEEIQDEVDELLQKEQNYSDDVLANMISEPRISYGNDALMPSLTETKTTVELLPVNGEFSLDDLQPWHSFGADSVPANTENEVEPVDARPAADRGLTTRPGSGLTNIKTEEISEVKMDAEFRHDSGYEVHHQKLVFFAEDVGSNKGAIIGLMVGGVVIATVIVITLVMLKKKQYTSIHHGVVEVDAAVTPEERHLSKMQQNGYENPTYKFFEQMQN

inhibition [1] | inhibition [2] | inhibition [3] | Activity [4] [%] | inhibition [5] | inhibition [10] | inhibition [11] | inhibition [12] | Structure (SMILES) | Activity (PC-12 [6]) [%] | Activity (PC-12 [7]) | Activity (PC-12 [8]) | other results
Active | inactive | inactive | < 50 | Active | Active | Active |  | CCCC[C@@H]1NC(=O)[C@@H](CC(C)C)NC(=O)N(CCCCN)NC(=O)[C@@H](CO)NC(=O)[C@H](Cc2c[nH]cn2)NC(=O)[C@@H](Cc2c[nH]c3ccccc23)NC1=O (racemic) | >90 | Active | Non-Toxic | inhibition [9]: Active
Active | inactive | inactive | 72 |  | inactive | Active | inactive | CCCC[C@@H]1NC(=O)N(CC(C)C)NC(=O)[C@H](CCCCN)NC(=O)[C@@H](CO)NC(=O)[C@H](Cc2c[nH]cn2)NC(=O)[C@@H](Cc2c[nH]c3ccccc23)NC1=O (racemic) |  |  | Toxic | 
Active | Active |  | < 50 | Active | Active | 60% | Active | CCCC[C@@H]1NC(=O)[C@@H](CC(C)C)NC(=O)[C@H](CCCCN)NC(=O)[C@@H](CO)NC(=O)N(Cc2c[nH]nn2)NC(=O)[C@@H](Cc2c[nH]c3ccccc23)NC1=O (racemic) | >90 |  | Non-Toxic | 
Active | Active |  | < 50 | inactive | inactive | inactive | inactive | CCCC[C@@H]1NC(=O)[C@@H](CC(C)C)NC(=O)[C@H](CCCCN)NC(=O)[C@@H](CO)NC(=O)[C@H](Cc2c[nH]cn2)NC(=O)N(Cc2cc3ccccc3[nH]2)NC1=O |  |  | Toxic | 
 | 89% | 50% | 33 |  |  |  |  | CCCC[C@@H]1NC(=O)[C@@H](CC(C)C)NC(=O)[C@H](CCCCN)NC(=O)[C@@H](CO)NC(=O)[C@H](Cc2c[nH]cn2)NC(=O)[C@@H](Cc2c[nH]c3ccccc23)NC1=O (cyclo(K[dL][Nle][dW]H[dS])) | 88 |  | Non-Toxic | Activity (Caenorhabditis elegans [13]): 86%; Activity (Caenorhabditis elegans [14]): 82; Activity (Caenorhabditis elegans [15]): 0.32
Active | 88% | 93% | < 50 | Active | Active | inactive | Active | CCCCN1NC(=O)[C@@H](CC(C)C)NC(=O)[C@H](CCCCN)NC(=O)[C@@H](CO)NC(=O)[C@H](Cc2c[nH]cn2)NC(=O)[C@@H](Cc2c[nH]c3ccccc23)NC1=O (racemic) | >90 | Active | Non-Toxic | inhibition [16]: 87.6%; inhibition [17]: Active; Activity (Caenorhabditis elegans [18]): Active; Activity (Caenorhabditis elegans [19]): Dose-Dependent Effect; Activity (Caenorhabditis elegans [20]): 76%; Activity (Caenorhabditis elegans [21]): inactive; Activity (Caenorhabditis elegans [22]): Dose-Dependent Effect; Activity (Caenorhabditis elegans [23]): 79; Activity (Caenorhabditis elegans [24]): Active; Activity (Caenorhabditis elegans [25]): Active; Activity (Caenorhabditis elegans [26]): Active; Activity (Caenorhabditis elegans [27]): Active; Activity (Caenorhabditis elegans [28]): inactive
Active | Active |  | < 50 | Active | Active | 60% |  | CCCC[C@@H]1NC(=O)[C@@H](CC(C)C)NC(=O)[C@H](CCCCN)NC(=O)N(CCO)NC(=O)[C@H](Cc2c[nH]cn2)NC(=O)[C@@H](Cc2c[nH]c3ccccc23)NC1=O (racemic) | >90 | Active | Non-Toxic | inhibition [9]: Active; Activity (Caenorhabditis elegans [18]): Active; Activity (Caenorhabditis elegans [19]): Dose-Dependent Effect; Activity (Caenorhabditis elegans [20]): 60%; Activity (Caenorhabditis elegans [21]): inactive; Activity (Caenorhabditis elegans [22]): Dose-Dependent Effect; Activity (Caenorhabditis elegans [23]): 79; Activity (Caenorhabditis elegans [24]): Active; Activity (Caenorhabditis elegans [25]): Active; Activity (Caenorhabditis elegans [26]): Active; Activity (Caenorhabditis elegans [27]): Active; Activity (Caenorhabditis elegans [28]): inactive

From ChEMBL document CHEMBL5352498, “Aza-Residue Modulation of Cyclic d,l-α-Peptide Nanotube Assembly with Enhanced Anti-Amyloidogenic Activity” (J Med Chem, 2023)
